Experimental data published in ChEMBL document CHEMBL1201862, “PubChem BioAssay data set” (2004).
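Step 1: Grow cells in 96-well plates. Step 2: Expose to compound for 48 hours at 5 concentrations. Step 3: Interpolate endpoints linearly; if unreached, use highest concentration. Abbreviation: GI50, concentration required for 50% inhibition of growth.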 Calls of active or inactive are those of the source. Cut-off read from the data, not from the text of the source: active = GI50 up to about 1.1 µM and inactive = higher.

How the values were obtained:
Test in all cases: DTP human tumour cell line panel, 48 h
[1] = test system: COLO 205
[2] = test system: M14
[3] = test system: SF-295
[4] = test system: SK-MEL-2
[5] = test system: HCT-116
[6] = test system: SF-268
[7] = test system: HCC 2998
[8] = test system: 786-0
[9] = test system: UO-31
[10] = test system: IGROV-1
[11] = test system: U-251
[12] = test system: OVCAR-4
[13] = test system: SK-MEL-28
[14] = test system: SR
[15] = test system: UACC-257
[16] = test system: HL-60

Measured: GI50

Cc1nc(-c2ccccc2)cc2c1c(=O)oc1ccccc12
inactive: [1] > 100 µM | [2] > 100 µM | [3] > 100 µM | [4] > 100 µM | [5] > 100 µM | [6] > 100 µM | [7] > 100 µM | [8] > 100 µM | [9] > 100 µM | [10] > 100 µM | [11] > 100 µM | [12] > 100 µM | [13] > 100 µM | [14] > 100 µM | [15] > 100 µM | [16] > 100 µM

Cn1sc2ccccc2c1=S
inactive: [1] 13.3 µM | [2] 10.4 µM | [3] 12.6 µM | [4] 20 µM | [5] 3.21 µM | [6] 3.5 µM | [7] 28.2 µM | [8] 3.85 µM | [9] 15.3 µM | [10] 13 µM | [11] 4.01 µM | [12] 8.2 µM | [13] 8.11 µM | [14] 14 µM | [15] 8.63 µM | [16] 5.47 µM

Cc1cc(NS(=O)(=O)c2ccc(NC(=O)c3cccn4c(=O)c5ccccc5nc34)cc2)no1
inactive: [1] > 100 µM | [2] > 100 µM | [3] > 100 µM | [5] > 100 µM | [6] > 100 µM | [7] > 100 µM | [8] > 100 µM | [9] > 100 µM | [10] > 100 µM | [11] > 100 µM | [12] > 100 µM | [13] > 100 µM | [14] > 100 µM | [15] > 100 µM | [16] > 100 µM

O=c1[nH]c(=O)n(C2OC(CO)C(O)C2O)cc1/N=N/NCc1ccccc1 (centres undefined)
inactive: [1] > 69.2 µM | [2] > 100 µM | [3] > 100 µM | [4] > 100 µM | [5] > 62.2 µM | [6] > 100 µM | [7] > 100 µM | [8] > 100 µM | [9] > 100 µM | [10] > 100 µM | [11] > 100 µM | [12] > 100 µM | [13] > 100 µM | [14] > 63.2 µM | [15] > 100 µM | [16] > 64.3 µM

Cc1nc(C(=O)O)c2ccccc2n1
inactive: [1] > 100 µM | [3] > 100 µM | [4] > 100 µM | [5] > 100 µM | [6] > 100 µM | [7] > 100 µM | [8] > 100 µM | [9] > 100 µM | [10] > 100 µM | [11] > 100 µM | [13] > 100 µM | [14] > 100 µM | [15] > 100 µM | [16] > 100 µM

CCCCOC(=O)NC(=O)c1cn(CCCOC(=O)CCCCCCCCC(=O)OCCCn2cc(C(=O)NC(=O)OCCCC)c(=O)n(C)c2=O)c(=O)n(C)c1=O
inactive: [1] > 100 µM | [2] > 100 µM | [3] > 100 µM | [4] > 100 µM | [5] > 100 µM | [6] > 100 µM | [7] > 100 µM | [8] > 100 µM | [9] > 100 µM | [10] > 100 µM | [11] > 100 µM | [12] > 100 µM | [13] > 100 µM | [14] > 100 µM | [15] > 100 µM | [16] > 100 µM

COC(=O)C1=C(C)N(NC(=O)OC(C)(C)C)C(=O)C1=P(c1ccccc1)(c1ccccc1)c1ccccc1
inactive: [1] > 100 µM | [2] > 100 µM | [3] 67.9 µM | [4] 17.2 µM | [5] > 100 µM | [6] > 100 µM | [7] > 100 µM | [8] > 100 µM | [9] > 100 µM | [10] > 100 µM | [11] > 100 µM | [12] > 100 µM | [14] 69 µM | [15] > 100 µM | [16] 42.4 µM

CC(C)=CCC/C(C)=C/Cc1c(O)ccc2c1[nH]c1cc(O)c(C)cc12
inactive: [1] > 25 µM | [2] 11.8 µM | [4] > 25 µM | [5] 13.3 µM | [6] 10.7 µM | [7] 11 µM | [8] 9.48 µM | [9] 7.73 µM | [10] 14.7 µM | [11] 10 µM | [12] 3.78 µM | [13] > 25 µM | [14] 8.13 µM | [16] 7.53 µM

CCOc1ccc(OCC(=O)O)c2c1CCCC2=O
inactive: [1] > 100 µM | [2] > 100 µM | [3] > 100 µM | [4] > 100 µM | [6] > 100 µM | [7] > 100 µM | [8] > 100 µM | [9] > 100 µM | [10] > 100 µM | [11] > 100 µM | [12] > 100 µM | [13] > 100 µM | [14] > 100 µM | [15] > 100 µM | [16] > 100 µM

CC(=O)OCc1ncccc1C(OC(C)=O)OC(C)=O
inactive: [1] > 100 µM | [2] > 100 µM | [3] > 100 µM | [4] > 100 µM | [5] > 100 µM | [6] > 100 µM | [8] > 100 µM | [9] > 100 µM | [10] > 100 µM | [11] > 100 µM | [12] > 100 µM | [13] > 100 µM | [14] > 100 µM | [15] > 100 µM | [16] > 100 µM

COc1ccc2cc3n(c(=O)c2c1)CCc1c-3cc(OC)c(OC)c1OC
inactive: [1] > 100 µM | [2] > 100 µM | [3] > 100 µM | [4] 56 µM | [5] > 100 µM | [6] > 100 µM | [7] > 100 µM | [8] > 100 µM | [9] > 100 µM | [10] > 100 µM | [11] 50.6 µM | [12] > 100 µM | [13] > 100 µM | [14] > 100 µM | [15] > 100 µM | [16] > 100 µM

CCN(CC)CCCC(C)Nc1c2cc(OC)cc(C)c2nc2c(C)c(Cl)ccc12 (centres undefined)
inactive: [1] 1.64 µM | [2] 2.02 µM | [3] 2.22 µM | [4] 1.87 µM | [5] 1.86 µM | [6] 1.97 µM | [7] 1.63 µM | [8] 1.64 µM | [9] 1.71 µM | [10] 1.67 µM | [11] 1.85 µM | [12] 1.71 µM | [13] 1.95 µM | [14] 2.01 µM | [15] 1.81 µM | [16] 2.15 µM

CCOC(=O)C(C)Sc1nnc(COc2ccccc2OC)n1-c1ccccc1 (centres undefined)
inactive: [1] > 100 µM | [2] > 100 µM | [3] > 100 µM | [4] > 100 µM | [5] 80.7 µM | [6] > 100 µM | [7] 29.1 µM | [8] > 100 µM | [9] > 100 µM | [10] > 100 µM | [11] > 100 µM | [12] > 100 µM | [13] > 100 µM | [15] > 100 µM | [16] 32.8 µM
